# Where two headings read alike, the source gives them in different places.
# Tests used:
# [1] = target: T1, norepinephrine transporter (NET) (Homo sapiens, UniProt P23975); assay: Competitive cell uptake assay against 3H-norepinephrine in SK-N-SH human neuroblastoma cells; format: cell-based
# T1 construct: cells naturally expressing NET; host or cells: SK-N-SH human neuroblastoma cells
# From the text: SK-N-SH (human neuroblastoma cell line) cells naturally expressing NET were cultivated according to the instructions from the supplier (Sigma-Aldrich Chemie GmbH, Taufkirchen, Germany). […] Cell lysates were collected and measured in a liquid scintillation analyzer.
# [2] = parameters: method as in PMID 28322043; conditions: rhesus macaque monkeys, not before 90 min after radiotracer injection; cited from earlier work
# [3] = Dynamic PET imaging and biodistribution of the radiotracer in healthy nonhuman primates; format: in vivo, cynomolgus monkeys; conditions: NHP controls
# Method: (§1) Male Wistar rats (n = 4, weighing 250-400 g) and New Zealand white rabbits (n = 5, weighing 3.2-3.6 kg) were used for cardiac uptake studies. Anesthesia was induced and maintained during the experiment by 2% isoflurane. Large animal PET studies were performed on cynomolgus monkeys (n = 4, weighing 3.9-4.2 kg). Induction of anesthesia in NHPs was conducted by intramuscular injection of ketamine (1.5 mg/kg) and xylazine (0.6 mg/kg) to allow the preparation and handling of the animals. After a tracheal cannula was inserted, 1.5% sevoflurane (SEVOFLURANE Inhalation Solution, Pfizer Japan Inc., Tokyo, Japan) vaporized with 100% oxygen was inhaled, and the tidal volume and respiratory rate of the ventilator were monitored and kept in the normal range throughout the imaging sessions with an anesthesia workstation (Apollo®, Drägerwerk AG & Co. KGaA, Lübeck, Germany).
# NHPs were maintained under anesthesia during imaging and were studied with a PET scanner (PCA-2000A, Toshiba Medical Systems Corporation, Tochigi, Japan). After a 5-min transmission scan and a bolus intravenous (i.v.) injection of the radiotracer ^18F-AF78 (approximately 20 MBq) via the saphenous vein, a 60-min dynamic PET scan (10 s × 12, 30 s × 6, and 300 s × 11) was initiated. For the blocking study, DMI was injected 10 min before radiotracer administration, after which the PET scan commenced immediately (n = 4). For the DMI chase study, DMI (1 mg/kg, n = 4) was injected 10 min after radiotracer administration, while the PET scan was initiated simultaneously with radiotracer administration. The catecholamine releasing stimulator tyramine (TYR) was also used in a chase protocol, with 50 µg/kg each injection (n = 4) injected intermittently (5 times, 10-min intervals) after radiotracer administration. The radiotracers ^18F-AF78 and ^123I-MIBG were formulated in saline for the animal studies. Control animals received normal saline. The inhibitors PhB, DMI and TYR were first dissolved in a minimum amount of DMSO and diluted with saline for administration with a final concentration of DMSO lower than 10%. The experimental timeline is provided in the supplementary material.
# (§2) PET imaging for rats, rabbits and NHPs was performed from the chest to the upper abdomen, including the heart, lungs, liver and part of the intestines. The reconstructed images were analyzed using AMIDE imaging software (version 1.0.1). For kinetic studies in rats and NHPs, the tissue uptake was determined as standardized uptake values (SUVs), from which time-activity curves of different organs, e.g., heart, blood, lung and liver, were generated with transmission computed tomography images for topographic localization.
# [4] = system: norepinephrine transporter (NET); assay: PET kinetic studies in nonhuman primates with DMI blocking, DMI chase and tyramine chase; format: in vivo, cynomolgus monkeys; conditions: NHP heart, 60 min
# Method: as §1
# NHPs were maintained under anesthesia during imaging and were studied with a PET scanner (PCA-2000A, Toshiba Medical Systems Corporation, Tochigi, Japan). After a 5-min transmission scan and a bolus intravenous (i.v.) injection of the radiotracer ^18F-AF78 (approximately 20 MBq) via the saphenous vein, a 60-min dynamic PET scan (10 s × 12, 30 s × 6, and 300 s × 11) was initiated. For the blocking study, DMI was injected 10 min before radiotracer administration, after which the PET scan commenced immediately (n = 4). For the DMI chase study, DMI (1 mg/kg, n = 4) was injected 10 min after radiotracer administration, while the PET scan was initiated simultaneously with radiotracer administration. […]
# as §2
# [5] = target: T2, norepinephrine transporter (NET) (Rattus norvegicus, UniProt Q63380); assay: PET imaging and biodistribution in rats with or without PhB blocking; format: in vivo, Wistar rats
# T2 construct: from tissue; host or cells: heart of living Wistar rats (in vivo PET, ex vivo tissue counting)
# T2 sequence (Q63380 1-617): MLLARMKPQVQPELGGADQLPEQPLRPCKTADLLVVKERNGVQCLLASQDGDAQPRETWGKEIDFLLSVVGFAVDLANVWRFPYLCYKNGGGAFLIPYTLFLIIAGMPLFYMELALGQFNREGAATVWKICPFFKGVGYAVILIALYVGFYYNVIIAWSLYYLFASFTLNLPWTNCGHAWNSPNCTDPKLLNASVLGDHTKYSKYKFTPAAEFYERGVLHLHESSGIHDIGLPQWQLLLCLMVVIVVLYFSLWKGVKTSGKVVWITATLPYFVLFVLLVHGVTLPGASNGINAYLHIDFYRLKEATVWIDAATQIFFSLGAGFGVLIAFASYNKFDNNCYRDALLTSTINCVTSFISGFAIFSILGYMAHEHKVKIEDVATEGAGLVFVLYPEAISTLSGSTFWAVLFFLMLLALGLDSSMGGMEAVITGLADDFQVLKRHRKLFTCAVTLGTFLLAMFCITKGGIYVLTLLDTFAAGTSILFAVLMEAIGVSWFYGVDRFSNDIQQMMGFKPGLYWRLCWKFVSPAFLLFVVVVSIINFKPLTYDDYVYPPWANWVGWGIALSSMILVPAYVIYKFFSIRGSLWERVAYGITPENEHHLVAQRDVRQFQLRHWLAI
# Method: as §1
# A small-animal PET system (microPET FOCUS 120, Siemens, Erlangen, Germany) was used for the rat studies. […] The organ-to-blood ratios were calculated following weight and decay correction of tissue counts.
# PET imaging for rats, rabbits and NHPs was performed from the chest to the upper abdomen, including the heart, lungs, liver and part of the intestines. The reconstructed images were analyzed using AMIDE imaging software (version 1.0.1). […]
# [6] = target: T3, norepinephrine transporter (NET) (Oryctolagus cuniculus, UniProt G1TDF9); assay: PET imaging and cardiac uptake in rabbits with or without DMI blocking; format: in vivo, New Zealand white rabbits; conditions: DMI 1.5 mg/kg 10 min before tracer, SUV, n = 5
# T3 construct: from tissue; host or cells: heart of living New Zealand white rabbits (in vivo PET, gamma counting)
# T3 sequence (G1TDF9 1-617): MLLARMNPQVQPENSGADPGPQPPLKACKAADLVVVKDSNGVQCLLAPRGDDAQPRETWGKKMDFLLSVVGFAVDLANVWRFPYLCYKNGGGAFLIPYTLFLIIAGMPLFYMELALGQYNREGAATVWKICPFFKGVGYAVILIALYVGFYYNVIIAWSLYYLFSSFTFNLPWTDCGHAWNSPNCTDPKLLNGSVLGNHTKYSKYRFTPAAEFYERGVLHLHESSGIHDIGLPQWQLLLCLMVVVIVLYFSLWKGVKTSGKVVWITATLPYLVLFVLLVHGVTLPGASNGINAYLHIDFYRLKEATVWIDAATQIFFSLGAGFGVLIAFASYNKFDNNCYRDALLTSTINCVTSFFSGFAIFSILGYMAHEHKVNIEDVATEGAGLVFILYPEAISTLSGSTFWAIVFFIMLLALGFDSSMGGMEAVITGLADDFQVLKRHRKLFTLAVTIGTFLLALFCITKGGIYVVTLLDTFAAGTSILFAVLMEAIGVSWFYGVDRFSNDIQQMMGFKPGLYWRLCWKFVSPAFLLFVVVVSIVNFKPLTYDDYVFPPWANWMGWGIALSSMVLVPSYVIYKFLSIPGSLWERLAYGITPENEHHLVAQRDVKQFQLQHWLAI
# Method: as §1
# ^18F-AF78 (3-4 MBq) and ^123I-MIBG (approximately 2.5 MBq) were injected into rabbits maintained under anesthesia via the marginal ear vein in a single dose. The NET blocker DMI (1.5 mg/kg) was injected 10 min before radiotracer administration in the blocking study. A 10-min dynamic scan was initiated immediately after the radiotracer injection. The animals were euthanized immediately after the scan, and the organs of interest were harvested and measured in a gamma counter to calculate biodistribution. […]
# [7] = SK-N-SH cells, 60 min, 37 °C, mean ± SD, n = 4, read-out: IC50, competitive cell uptake affinity against 3H-NE
# T1 sequence (P23975 whole entry): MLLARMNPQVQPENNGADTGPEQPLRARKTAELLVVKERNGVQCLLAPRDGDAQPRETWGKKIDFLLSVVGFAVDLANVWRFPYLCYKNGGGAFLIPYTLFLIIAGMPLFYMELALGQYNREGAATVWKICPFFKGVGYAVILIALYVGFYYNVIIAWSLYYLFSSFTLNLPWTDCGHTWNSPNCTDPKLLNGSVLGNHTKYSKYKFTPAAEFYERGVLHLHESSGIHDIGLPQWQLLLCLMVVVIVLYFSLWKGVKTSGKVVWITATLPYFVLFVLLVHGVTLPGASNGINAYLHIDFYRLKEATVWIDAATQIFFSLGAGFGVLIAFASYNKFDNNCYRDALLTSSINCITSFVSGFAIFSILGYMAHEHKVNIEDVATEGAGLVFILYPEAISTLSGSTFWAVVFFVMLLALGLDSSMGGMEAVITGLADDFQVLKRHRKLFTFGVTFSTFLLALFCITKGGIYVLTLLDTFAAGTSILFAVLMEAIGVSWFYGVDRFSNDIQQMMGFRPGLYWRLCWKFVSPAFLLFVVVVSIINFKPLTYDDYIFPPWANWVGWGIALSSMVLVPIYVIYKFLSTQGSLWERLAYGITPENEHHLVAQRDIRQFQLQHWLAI
compound,measurement,setting,value
"CN[C@@H](C)[C@H](O)c1cccc(O)c1 [HED, metahydroxyephedrine]",IC50,[1],390 ± 110 nM
"NCCc1cc(O)c(O)cc1F [6F-DA, 6-fluorodopamine]",IC50,[1],1200 ± 330 nM
"N=C(N)NCCc1ccc(F)c(O)c1 [4F-MHPG, 4-fluoro-3-hydroxyphenethylguanidine]",IC50,[1]; [7],2780 ± 1220 nM
same,heart-to-liver ratio,[2],2.2 ± 0.8
"N=C(N)NCCc1ccc(OCCCF)c(F)c1 [AF78, 1-(3-fluoro-4-(3-fluoropropoxy)phenethyl)guanidine]",IC50,[1]; [7],420 ± 140 nM
same,fold higher affinity of AF78 relative to MIBG,"[1]; ratio of IC50 values, SK-N-SH cells",4.2 fold
same,heart-to-blood pool ratio,[3]; 5 min postinjection,2.03 ± 0.53
same,heart-to-liver ratio,[3]; 5 min postinjection,0.38 ± 0.29
same,heart-to-liver ratio,[3]; 30 min postinjection,0.95 ± 0.20
same,absolute SUV in the blood pool,[3]; 60 min postinjection,0.72 ± 0.34 SUV
same,absolute SUV in the liver,[3]; 60 min postinjection,0.91 ± 0.47 SUV
same,heart-to-blood pool ratio,[3]; 60 min postinjection,1.82 ± 0.71
same,heart-to-liver ratio,[3]; 60 min postinjection,1.60 ± 0.38
same,cardiac SUV,"[3]; heart, 5 min postinjection",1.74 ± 0.24 SUV
same,"cardiac uptake, mean SUV","[3]; heart, 60 min postinjection",1.46 ± 0.18 SUV
same,cardiac mean SUV after DMI chase,[4]; DMI 1 mg/kg 10 min after tracer,1.40 ± 0.07 SUV
same,cardiac mean SUV after DMI blocking,[4]; DMI injected 10 min before tracer,0.45 ± 0.05 SUV
same,cardiac mean SUV after intermittent TYR chase,[4]; tyramine 50 µg/kg 5 times at 10-min intervals,0.92 ± 0.20 SUV
same,cardiac uptake upon PhB pretreatment,"[5]; PhB 50 mg/kg 10 min before tracer, time-activity curves",decreased rapidly
same,"organ-to-blood ratios, early (10 min) versus late (60 min) phase","[5]; biodistribution study, controls",unchanged
same,cardiac uptake in the DMI pretreatment group,[6],reduced significantly
"N=C(N)NCc1ccc(OCCCF)c(Br)c1 [FBBG, flubrobenguane]",IC50,[1]; [7],2280 ± 1050 nM
"N=C(N)NCCc1ccc(O)c(F)c1 [3F-PHPG, 3-fluoro-4-hydroxyphenethylguanidine]",IC50,[1]; [7],780 ± 60 nM
same,heart-to-liver ratio,[2],2.5 ± 0.3
"N=C(N)NCc1cccc(I)c1 [MIBG, metaiodobenzylguanidine, reference compound]",IC50,[1]; [7],1750 ± 470 nM
same,cardiac uptake in the DMI pretreatment group,[6],reduced significantly
